Data taken from patent US10653138B2, “Composition for attracting bed bugs” (London School of Hygiene & Tropical Medicine, priority 2015, dated 2020).

How the values were obtained:
bed bug antennae = assay: Coupled gas chromatography-electroantennography (GC-EAG) of volatile extract from bed bug-exposed paper; parameters: species or system Cimex lectularius; settings: for Responses Total: males plus females, 20 insects tested; for Responses Females: number of females giving an EAG response to the peak; for Responses Females / Responses Males: volatile extract 1 μL; for Responses Males: number of males giving an EAG response to the peak; for electroantennogram (EAG) response: result in words; for Visual inspection (no of responses) >5 / Visual inspection (no of responses) >10 / Visual inspection (no of responses) >15: threshold of individuals responding; for Visual inspection (no of responses) Response: total EAG responses, Table 8; for Electrophysiology Auto method: bullet = marked under the Auto method
Excerpt: Experimental insects, unless otherwise stated, were mated males and females of C. lectularius that had been fed 7 to 14 days previously on heparinised sheep blood. The electrodes used to make recordings were Ag/AgCl wires (diameter 0.37 mm) inserted into glass pipettes, made from borosilicate glass capillaries (outer diameter 2.0 mm; inner diameter 1.16 mm). The glass pipettes were filled with Ringers solution (7.55 g NaCl, 0.64 g KCl, 0.22 g CaCl2, 1.73 g MgCl2 g, 0.86 g NaHCO3 and 0.61 g Na3PO4 L^−1 water). The bed bug was then chilled on ice for one minute before dissection. Preparations were held in a continuous, humidified, charcoal filtered air flow ([…]) coming from a glass tube, which was positioned 5 mm from the antennal preparation. Once the antennal preparation and EAG equipment were in position the microscope light was switched off.
The GC used was a HP-680N, containing a HP-1 column (30 m×0.32 mm; film thickness, 0.52 μm) with a COC injector, hydrogen carrier gas and a FID. The oven temperature was maintained at 40° C. for two min and then programmed at 5° C. min^−1 to 100° C. and then at 10° C. […] to 250° C. The end of the column was inserted into the centre of the main air flow so that the eluent went over the antennal preparation. […] Amplification of the signals was set at ×10,000. Signals were analysed using the computer-based software package, EAD 2000 (Syntech®, The Netherlands). The volatile extract (1 μL) from an air entrainment of bed bug-exposed papers (see Example 1) was injected onto the column. A solution of n-alkanes (C7-C25, 1 μL of 100 ng μL^−1) in hexane was also analysed to calculate the retention indices (RI) of any EAG-active peaks for comparison with GC and coupled GC-MS traces (Equation 1).
Electroantennographic (EAG) responses from the coupled gas chromatography-electroantennographic (GC-EAG) analysis of the volatile extract collected using air entrainment were determined by visual appearance. Coupled GC-EAG traces were examined visually on a light box to identify EAG responses and match them to peaks on the GC traces. A combination of characteristics including the amplitude and shape of the deflection from the baseline were used to identify EAG responses. For example, an EAG response is usually of greater amplitude than the background noise and it has a characteristic negative deflection followed by a quick positive deflection resulting in a short sharp response often of similar shape and position as the corresponding peak on the GC trace. Responses were matched between males and females separately onto master traces for each sex. The EAG-active peaks were labelled from 1 to 21. Male and female master traces were then overlaid to identify where consistent responses occurred in both sexes. Five or more individuals responding at the same retention time on the GC trace was considered to be a consistent EAG response and the corresponding peak on the GC trace was considered to be EAG-active. Three thresholds were used: greater than 5, greater than 10 or greater than 15 individuals responding to the same GC peak or at the same retention time. The traces were then subjected to manual or automated statistical analysis.

bed bugs [1] = assay: Behavioural bioassay, dose responses of individual chemicals (Example 8); assay type: in vivo, Cimex lectularius; settings: all doses 0.008× to 8000×
Description: Methods: The behavioural bioassay was as described by Weeks et al. 2011 and recorded using EthoVision and the methodology described by Weeks et al. 2013. For each chemical, (E)-2-octenal, (RS)-1-octen-3-ol and nonanal, seven doses were tested from 0.008× to 8000×, along with three controls. Each replicate was completed as a block of 10 treatments including: We are referring here to either 0.001×, 0.01×, 0.1×, 1×, 10×, 100× or 1000× the dose of (E)-2-octenal found naturally in the aggregation pheromone. For instance, an “8% solution” refers to an 8% dose of volatile extract (with the various different ratios of individual component). In each block the order of the treatments and the position of the odour pot were randomized. 10 blocks were completed for each chemical (n=10).

bed bugs [2] = settings: cited from earlier work; for attraction of bed bugs to safe shelters: volatile components of aggregation pheromone

| Structure (SMILES) | Responses Total (bed bug antennae) | Responses Females (bed bug antennae) | Responses Males (bed bug antennae) | electroantennogram (EAG) response (bed bug antennae) | Visual inspection (no of responses) >5 (bed bug antennae) | Visual inspection (no of responses) >10 (bed bug antennae) | Visual inspection (no of responses) Response (bed bug antennae) | time spent above the odour pot compared to zero (bed bugs [1]) | Electrophysiology Auto method (bed bug antennae) | Visual inspection (no of responses) >15 (bed bug antennae) | attraction of bed bugs to safe shelters (bed bugs [2]) | arrestment of bed bugs (bed bugs [2]; less-volatile component) |
| --- | --- | --- | --- | --- | --- | --- | --- | --- | --- | --- | --- | --- |
| C=CC(O)CCCCC (racemic) [(RS)-1-Octen-3-ol, (RS)-1-octen-3-ol] | 11 | 7 | 4 | EAG-active | • (>5) | • (>10) | 11 | none of the (RS)-1-octen-3-ol doses resulted in significantly more | – | – | – | – |
| CC1=CCC2C(C1)C2(C)C (single isomer, unassigned) [3-Carene, 3-carene] | 11 | 7 | 4 | EAG-active | • (>5) | • (>10) | 11 | – | – | – | – | – |
| CC/C=C/C=C/C(C)=O (single isomer, unassigned) [(3E,5E)-Octadien-2-one, (3E,5E)-octadien-2-one] | 13 | 5 | 8 | EAG-active | • (>5) | • (>10) | 13 | – | • | – | – | – |
| O=Cc1ccccc1 (single isomer, unassigned) [Benzaldehyde, benzaldehyde] | 8 | 3 | 5 | EAG-active | • (>5) | – | 8 | – | – | – | – | – |
| CCCCCCC=O (single isomer, unassigned) [Heptanal, heptanal] | 13 | 7 | 6 | EAG-active | • (>5) | • (>10) | 13 | – | • | – | – | – |
| CCCCCC=O (single isomer, unassigned) [Hexanal, hexanal] | 9 | 4 | 5 | EAG-active | • (>5) | – | 9 | – | – | – | – | – |
| CCCCCCCC=O (single isomer, unassigned) [Octanal, octanal] | 19 | 10 | 9 | EAG-active | • (>5) | • (>10) | 19 | – | • | • (>15) | – | – |
| C=C1C=CC(C(C)C)CC1 (single isomer, unassigned) [β-Phellandrene, β-phellandrene] | 11 | 6 | 5 | EAG-active | • (>5) | • (>10) | 11 | – | – | – | – | – |
| CCCCOCCOCCOC(C)=O [2-(2-Butoxyethoxy)-acetate ethanol, 2-(2-butoxyethoxy)ethyl acetate] | 12 | 5 | 7 | EAG-active | • (>5) | • (>10) | 12 | – | – | – | – | – |
| CCCCCCCCC(C)=O [2-Decanone, 2-decanone] | 9 | 4 | 5 | EAG-active | • (>5) | – | 9 | – | – | – | – | – |
| CCCCC(C)=O [2-hexanone] | – | – | – | – | – | – | – | – | – | – | attract bed bugs to safe shelters | – |
| CCCCCC/C=C/C=O [(E)-2-Nonenal, (E)-2-nonenal] | 13 | 8 | 5 | EAG-active | • (>5) | • (>10) | 13 | – | • | – | – | – |
| CCCCCCCC/C=C/C=O [(E)-2-Undecenal, (E)-2-undecenal] | 9 | 5 | 4 | EAG-active | • (>5) | – | 9 | – | – | – | – | – |
| CCC/C=C/C=O [(E)-2-hexenal] | – | – | – | – | – | – | – | – | – | – | attract bed bugs to safe shelters | – |
| C=C1/C=C/[C@H](C(C)C)CC/C(C)=C/CC1 [(S)-(−)-Germacrene D, (S)-(−)-germacrene D] | 14 | 7 | 7 | EAG-active | • (>5) | • (>10) | 14 | – | – | – | – | – |
| CCCCCCCCCC=O [Decanal, decanal] | 12 | 5 | 7 | EAG-active | • (>5) | • (>10) | 12 | – | – | – | – | – |
| CCCCCCCCCCCC [Dodecane, dodecane] | 16 | 8 | 8 | EAG-active | • (>5) | • (>10) | 16 | – | • | • (>15) | – | – |
| CCCCCCCCC(=O)O [Nonanoic acid, nonanoic acid] | 12 | 6 | 6 | EAG-active | • (>5) | • (>10) | 12 | – | – | – | – | – |
| CSSC [dimethyl disulfide] | – | – | – | – | – | – | – | – | – | – | attract bed bugs to safe shelters | – |
| CSSSC [dimethyl trisulfide] | – | – | – | – | – | – | – | – | – | – | attract bed bugs to safe shelters | – |
| NCCc1c[nH]cn1 [histamine] | – | – | – | – | – | – | – | – | – | – | – | causes their arrestment upon contact |
